Laboratory results as given in patent US20230119479A1, “A HISTONE DEACETYLASE INHIBITOR HAVING A NITROGEN-CONTAINING AROMATIC HETEROCYCLYL GROUP” (SHIONOGI & CO., LTD., priority 2019, published 2023).

What follows are compounds tested against T1, HDAC2 Human recombinant C-terminal FLAG-tag (Homo sapiens, UniProt Q92769) (assay: Measurement of HDAC2 enzyme inhibitory activity (HTRF)). Settings: recombinant HDAC2, H3K9ac peptide, 3 hours room temperature; read-out: HDAC2 IC50.
T1 construct: FLAG (C); purchased BPS Bioscience 50052
T1 sequence (Q92769 whole entry): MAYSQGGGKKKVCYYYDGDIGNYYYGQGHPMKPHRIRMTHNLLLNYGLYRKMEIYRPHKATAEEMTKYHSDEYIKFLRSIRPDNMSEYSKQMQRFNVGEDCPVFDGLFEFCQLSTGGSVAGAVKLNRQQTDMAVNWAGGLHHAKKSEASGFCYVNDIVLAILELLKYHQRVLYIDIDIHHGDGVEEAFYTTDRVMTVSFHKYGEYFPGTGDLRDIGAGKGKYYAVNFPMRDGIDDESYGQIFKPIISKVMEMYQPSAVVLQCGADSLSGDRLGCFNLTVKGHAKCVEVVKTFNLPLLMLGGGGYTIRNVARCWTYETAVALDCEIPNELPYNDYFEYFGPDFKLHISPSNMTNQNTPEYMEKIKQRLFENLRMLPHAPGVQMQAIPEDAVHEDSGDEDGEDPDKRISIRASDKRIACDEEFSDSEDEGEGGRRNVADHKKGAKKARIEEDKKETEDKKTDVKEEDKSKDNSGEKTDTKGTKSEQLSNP
Format: biochemical
Experimental: Test Example 1: Measurement of HDAC2 Enzyme Inhibitory Activity
The HDAC2 enzyme inhibitory activity was measured by the method described in the following test example.
To each well of a 384-well plate (Corning, 4514), DMSO solution of the test compound was dispensed at 50 nL/well from a final concentration of 99 μM to 8 points (n=2) in the 3-fold dilution series using Echo555 (Beckman Coulter). 2.5 μl of 0.005 mg/mL recombinant enzyme HDAC2 (HDAC2 Human recombinant C-terminal FLAG-tag, BPS Bioscience, 50052) was added to each well, 2.5 μl of 0.6 μM H3K9ac peptide (Lys(Ac)9-Histone H3 (1-21)-GGK(Biotin), AnaSpec, 64361) was added, mixed, and reacted in a wet box at room temperature for 3 hours. 50 mM Tris HCL pH8.0, 137 mM sodium chloride, 2.7 mM potassium chloride, 1 mM magnesium chloride, 0.01% Tween20, and 0.1% BSA which were diluted with ultrapure water were used as a reaction buffer at this time. After the reaction, 5 μL of 10 μM SAHA (suberoylanilide hydroxamic acid) as a reaction terminator and the 5 μL of a mixture of 2.5 ng of H3K9me0 antibody (ActiveMotif, 61399) labeled in-house with europium cryptate (Cisbio, 65EUSABA) and 125 nM streptavidin-XL665 (Cisbio, 610SAXLA) as an HTRF (time-resolved fluorescence) reagent were added to each well, mixed, and allowed to stand in a wet box at room temperature for reaction. A detection buffer used at this time was 50 mM Tris HCL pH 8.0, 0.8 M potassium fluoride, and 0.1% BSA which were diluted with ultrapure water. After reacting for 2 hours or more, HTRF was measured using a multi-plate reader such as SpectraMax Paradigm (MOLECULAR DEVICE) or RUBYstar (BMG LABTECH). Ratio (665 nm/615-620 nm×10000) was calculated from the fluorescence values of two wavelengths, 615-620 nm and 665 nm, which were excited at 320-340 nm, and the energy transition was obtained.

SMILES	IC50 [µM]
Nc1ccc(-c2ccc(F)nc2)cc1NC(=O)c1ccccn1 [Compound I-113]	0.32
COc1cnc(C(=O)Nc2cc(-c3ccc(F)nc3)ccc2N)cn1 [Compound I-120]	0.24
Cc1cnc(C(=O)Nc2cc(-c3ccc(F)nc3)ccc2N)cn1 [Compound I-123]	0.14
Nc1ccc(-c2ccc(F)nc2)cc1NC(=O)c1cnc(-n2cncn2)cn1 [Compound I-128]	0.18
Cc1nnc(-c2ccc(C(=O)Nc3cc(-c4ccc(F)nc4)ccc3N)nc2)o1 [Compound I-133]	0.11
Nc1ccc(-c2ccc(F)nc2)cc1NC(=O)c1cnc(CF)cn1 [Compound I-134]	0.21
Nc1ccc(-c2ccc(F)nc2)cc1NC(=O)c1ccc(OCC(F)(F)F)cn1 [Compound I-135]	0.47
Cc1cnc(C(=O)Nc2cc(-c3cnn(C)c3)ccc2N)cn1 [Compound I-138]	0.2
CC(C)c1ccc(C(=O)Nc2cc(-c3cnn(C)c3)ccc2N)nc1 [Compound I-153]	0.21
Cc1ccc(C(=O)Nc2cc(-c3ccc(F)nc3)ccc2N)nc1 [Compound I-154]	0.12
CC(C)Oc1ccc(C(=O)Nc2cc(-c3cnn(C)c3)ccc2N)nc1 [Compound I-163]	0.21
Cc1cnc(C(=O)Nc2nc(-n3cccc3)ccc2N)cn1 [Compound I-171]	0.43
CCc1ccc(C(=O)Nc2cc(-c3ccc(F)nc3)ccc2N)nc1 [Compound I-174]	0.12
CN(C)c1ccc(C(=O)Nc2cc(-c3ccc(F)nc3)ccc2N)nc1 [Compound I-176]	0.079
Nc1ccc(-c2ccc(F)nc2)cc1NC(=O)c1ccc2c(n1)OCO2 [Compound I-183]	0.048
CC(C)(C)c1ccc(C(=O)Nc2cc(-c3ccc(F)nc3)ccc2N)nc1 [Compound I-191]	0.24
CC(C)(O)c1ccc(C(=O)Nc2cc(-c3ccc(F)nc3)ccc2N)nc1 [Compound I-193]	0.17
Cn1cc(-c2ccc(N)c(NC(=O)c3ccc(C(C)(C)C)cn3)c2)cn1 [Compound I-201]	0.26

SMILES	IC50 [µM]
Cn1cc(-c2ccc(N)c(NC(=O)c3cnc(C(C)(C)C)cn3)c2)cn1 [Compound I-204]	0.34
CN(C)c1cnc(C(=O)Nc2cc(-c3cncs3)ccc2N)cn1 [Compound I-205]	0.06
Nc1ccc(-n2cccc2)nc1NC(=O)c1ccc(N2CCOCC2)cn1 [Compound I-206]	0.5
COCc1ccc(C(=O)Nc2cc(-c3cnn(C)c3)ccc2N)nc1 [Compound I-207]	0.25
CN(C)c1cnc(C(=O)Nc2nc(-c3ccccc3)ccc2N)cn1 [Compound I-213]	0.31
Cn1cc(-c2ccc(N)c(NC(=O)c3ccc4c(n3)OCO4)c2)cn1 [Compound I-216]	0.1
COCc1cnc(C(=O)Nc2cc(-c3ccc(F)nc3)ccc2N)cn1 [Compound I-218]	0.15
CCN(C)c1cnc(C(=O)Nc2cc(-c3ccc(F)nc3)ccc2N)cn1 [Compound I-220]	0.05
Nc1ccc(-c2ccc(F)nc2)cc1NC(=O)c1cnc(N2CCC2)cn1 [Compound I-221]	0.05
Nc1ccc(-c2ccc(F)nc2)cc1NC(=O)c1cnc(N2CC3(CCC3)C2)cn1 [Compound I-223]	0.09
Nc1ccc(-c2ccc(F)nc2)cc1NC(=O)c1cnc(N2CCC2(CO)CCl)cn1 (stereo not drawn) [Compound I-225]	0.09
CN(C)c1cnc(C(=O)Nc2nc(-c3cnn(C)c3)ccc2N)cn1 [Compound I-228]	0.63
COCCOc1cnc(C(=O)Nc2cc(-c3ccc(F)nc3)ccc2N)cn1 [Compound I-229]	0.13
COCCOc1cnc(C(=O)Nc2nc(-c3ccccc3)ccc2N)cn1 [Compound I-231]	0.85
COCCOc1cnc(C(=O)Nc2nc(-n3cccc3)ccc2N)cn1 [Compound I-232]	0.32
Nc1ccc(-c2ccccc2)nc1NC(=O)c1ccc2c(n1)OCC(=O)N2 [Compound I-233]	0.28
Nc1ccc(-c2ccc(F)nc2)cc1NC(=O)c1cnc(N2CC3(CCO3)C2)cn1 [Compound I-235]	0.06

Continued by falling IC50, values first:

IC50 [µM]	SMILES
0.83	CN(C)c1cnc(C(=O)Nc2nc(-n3cccc3)ccc2N)cn1 [Compound I-212]
0.49	Nc1ccc(-c2ccc(F)nc2)cc1NC(=O)c1cc(F)ccn1 [Compound I-186]
0.45	CN(C)c1ccc(C(=O)Nc2nc(-n3cccc3)ccc2N)nc1 [Compound I-226]
0.44	Nc1ccc(-c2ccc(F)nc2)cc1NC(=O)c1cccnn1 [Compound I-115]
0.39	Nc1ccc(-c2ccc(F)nc2)cc1NC(=O)c1ccc(OC(F)F)cn1 [Compound I-143]
0.38	Cn1cc(-c2ccc(N)c(NC(=O)c3cnc(OC(F)F)cn3)c2)cn1 [Compound I-146]
0.35	COCCOc1ccc(C(=O)Nc2nc(-n3cccc3)ccc2N)nc1 [Compound I-182]
0.34	Nc1ccc(-c2ccc(F)nc2)cc1NC(=O)c1cnc(C(F)F)cn1 [Compound I-145]
0.34	Nc1ccc(-c2ccccc2)nc1NC(=O)c1ccc2c(n1)OCO2 [Compound I-217]
0.31	COc1ccnc(C(=O)Nc2cc(-c3ccc(F)nc3)ccc2N)c1 [Compound I-150]
0.31	COCc1cnc(C(=O)Nc2cc(-c3cnn(C)c3)ccc2N)cn1 [Compound I-219]
0.29	Cn1cc(-c2ccc(N)c(NC(=O)c3cnc(CF)cn3)c2)cn1 [Compound I-147]
0.29	Nc1ccc(-c2cncs2)cc1NC(=O)c1noc2ccccc12 [Compound I-195]
0.26	Nc1ccc(-c2ccc(F)nc2)cc1NC(=O)c1cnccn1 [Compound I-114]
0.25	COCCOc1cnc(C(=O)Nc2cc(-c3cnn(C)c3)ccc2N)cn1 [Compound I-230]
0.24	Cn1cc(-c2ccc(N)c(NC(=O)c3cc(-c4cnn(C)c4)on3)c2)cn1 [Compound I-197]
0.24	CC(C)(C)c1cnc(C(=O)Nc2cc(-c3ccc(F)nc3)ccc2N)cn1 [Compound I-203]
0.24	Nc1ccc(-n2cccc2)nc1NC(=O)c1ccc2c(n1)OCC(=O)N2 [Compound I-234]
0.22	COc1ccc(C(=O)Nc2cc(-c3cnn(C)c3)ccc2N)nc1 [Compound I-140]
0.22	Nc1ccc(-c2ccc(F)nc2)cc1NC(=O)c1cnc(OCC(F)F)cn1 [Compound I-151]

IC50 [µM]	SMILES
0.22	Cc1ccc(C(=O)Nc2cc(-c3cnn(C)c3)ccc2N)nc1 [Compound I-155]
0.22	Nc1ccc(-c2ccc(F)nc2)cc1NC(=O)c1ccc(CO)cn1 [Compound I-192]
0.21	CCOc1ccc(C(=O)Nc2cc(-c3ccc(F)nc3)ccc2N)nc1 [Compound I-164]
0.21	COCCOc1ccc(C(=O)Nc2cc(-c3cnn(C)c3)ccc2N)nc1 [Compound I-180]
0.2	CC(C)Oc1ccc(C(=O)Nc2cc(-c3ccc(F)nc3)ccc2N)nc1 [Compound I-162]
0.2	CCOc1ccc(C(=O)Nc2cc(-c3cnn(C)c3)ccc2N)nc1 [Compound I-165]
0.2	Cn1cccc1-c1cc(C(=O)Nc2cc(-c3cncs3)ccc2N)no1 [Compound I-199]
0.19	Cc1ccc(C(=O)Nc2cc(-c3ccc(F)nc3)ccc2N)nc1F [Compound I-210]
0.18	C=Cc1ccc(C(=O)Nc2cc(-c3ccc(F)nc3)ccc2N)nc1 [Compound I-131]
0.17	CCc1ccc(C(=O)Nc2cc(-c3cnn(C)c3)ccc2N)nc1 [Compound I-175]
0.15	COCc1ccc(C(=O)Nc2cc(-c3ccc(F)nc3)ccc2N)nc1 [Compound I-208]
0.15	Cc1cnc(C(=O)Nc2cc(-c3ccc(F)nc3)ccc2N)c(F)c1 [Compound I-209]
0.14	CC(C)c1ccc(C(=O)Nc2cc(-c3ccc(F)nc3)ccc2N)nc1 [Compound I-181]
0.14	COC(=O)c1ccc(C(=O)Nc2cc(-c3ccc(F)nc3)ccc2N)nc1 [Compound I-185]
0.1	Nc1ccc(-c2ccc(F)nc2)cc1NC(=O)c1cnc(N2CC(Cl)(CCO)C2)cn1 [Compound I-224]
0.08	Nc1ccc(-c2ccc(F)nc2)cc1NC(=O)c1cnc(N2CC(CO)(CCl)C2)cn1 [Compound I-222]
0.06	CN(C)c1cnc(C(=O)Nc2cc(-c3cnco3)ccc2N)cn1 [Compound I-202]
0.055	Cn1cc(-c2cc(C(=O)Nc3cc(-c4cncs4)ccc3N)no2)cn1 [Compound I-196]
0.049	Nc1ccc(-c2ccc(F)nc2)cc1NC(=O)c1ccc2c(n1)OCC(=O)N2 [Compound I-184]
0.046	CN(C)c1cnc(C(=O)Nc2cc(-c3ccc(F)nc3)ccc2N)cn1 [Compound I-178]
